Experimental data reported in PubChem BioAssay AID493111 (The Scripps Research Institute Molecular Screening Center, 2011).
Active and inactive are the calls of the source. No rule for the calls is given here.

Assays:
Experiment in all cases: LYPLA1/LYPLA2 inhibition and hydrolase selectivity, late-stage follow-up, selectivity assay for LYPLA1/LYPLA2 dual inhibitor project, biochemical, gel-based ABPP, fluorescence, proteome (AID 493111)
Conditions in all cases: fluorophosphonate-rhodamine competition, at 1.5 µM (top of the series)
APEH = test system: APEH
LYPLA1 = test system: LYPLA1
ESD = test system: ESD
LYPLA2 = test system: LYPLA2
ABHD11 = test system: ABHD11

Row | SMILES | inhibition (APEH) | inhibition (LYPLA1) | inhibition (ESD) | inhibition (LYPLA2) | inhibition (ABHD11)
1 | O=C(N1CCOCC1)n1ncc(-c2ccccc2)n1 | 100% | 0% (inactive) | 75% | 0% (inactive) | 100%
2 | O=C(N1CCOCC1)n1ncc(-c2ccc(OC(F)(F)F)cc2)n1 | 50% (inactive) | 0% (inactive) | 75% (inactive) | 0% (inactive) | 100%
3 | O=C(N1CCC(C(O)(c2ccccc2)c2ccccc2)CC1)n1ncc(C(O)(c2ccccc2)c2ccccc2)n1 | 0% (inactive) | 100% | 0% (inactive) | 100% | 100%
4 | O=C(N1CCOCC1)n1nnc2ccccc21 | 100% (inactive) | 50% (inactive) | 50% (inactive) | 0% (inactive) | 100%
5 | O=C(N1CCCCC1)n1ccnn1 | 0% (inactive) | 75% (inactive) | 0% (inactive) | 0% (inactive) | 100%
6 | O=C(N1CCOCC1)n1ccnn1 | 0% (inactive) | 0% (inactive) | 0% (inactive) | 0% (inactive) | 100%
7 | CC(C)(O)c1cnn(C(=O)N2CCC(C(C)(C)C)CC2)n1 | 0% (inactive) | 100% | 0% (inactive) | 100% | 100% (inactive)
8 | O=C(N1CCCCC1)n1ncc(C(O)(c2ccccc2)c2ccccc2)n1 | 50% (inactive) | 100% | 100% | 100% | 100%
9 | CC1CCN(C(=O)n2ncc(C(O)(c3ccccc3)c3ccccc3)n2)CC1 | 100% | 100% | 75% (inactive) | 100% | 100%
10 | CC(C)(C)C1CCN(C(=O)n2ncc(C3(O)CCCCC3)n2)CC1 | 0% (inactive) | 100% | 50% (inactive) | 100% | 100%
11 | O=C(N1CCCCC1)n1ncc(C(O)c2ccccc2)n1 (stereo not given) | 0% (inactive) | 100% | 75% | 75% | 100%
12 | O=C(N1CCCC(Cc2ccccc2)C1)n1cc(C(O)(c2ccccc2)c2ccccc2)nn1 (stereo not given) | 0% (inactive) | 100% | 50% (inactive) | 100% | 100%
13 | O=C(N1CCOCC1)n1ncc(-c2cc(F)cc(F)c2)n1 | 100% | 50% (inactive) | 75% | 0% (inactive) | 100%
14 | COc1ccc2cc(-c3cnn(C(=O)N4CCCCC4)n3)ccc2c1 | 75% (inactive) | 100% (inactive) | 100% | 50% (inactive) | 100%
15 | O=C(N1CCCCC1)n1ncc(-c2ccc(Oc3ccccc3)cc2)n1 | 0% (inactive) | 100% | 100% | 0% (inactive) | 100%
16 | O=C(N1CCC(Cc2ccccc2)CC1)n1ncc(C(O)(c2ccccc2)c2ccccc2)n1 | 0% (inactive) | 100% | 50% (inactive) | 100% | 100%
17 | CC(C)(C)C1CCN(C(=O)n2ncc(C(O)(c3ccccc3)c3ccccc3)n2)CC1 | 0% (inactive) | 100% | 50% (inactive) | 100% | 100%
18 | O=C(N1CCOCC1)n1ncc(C(O)(c2ccccc2)c2ccccc2)n1 | 50% (inactive) | 100% | 50% (inactive) | 50% (inactive) | 100%
19 | COC1CCN(C(=O)n2ncc(C(O)(c3ccccc3)c3ccccc3)n2)CC1 | 0% (inactive) | 100% | 100% (inactive) | 100% | 100%
20 | CCC1CCCCN1C(=O)n1ncc(C(O)(c2ccccc2)c2ccccc2)n1 (stereo not given) | 50% (inactive) | 0% (inactive) | 0% (inactive) | 0% (inactive) | 100%
